Laboratory results: article PMC10215804, “Exploring Alternative Pathways to Target Bacterial Type II Topoisomerases Using NBTI Antibacterials: Beyond Halogen-Bonding Interactions” (Antibiotics, 2023)
Read-outs that look alike come from different tables or passages of the source.

What was measured:
MRSA (QA-11.7) = assay: MIC, broth microdilution; assay type: cell-based, S. aureus; settings: Staphylococcus aureus
Method: (§1) For the determination of minimum inhibitory concentrations (MIC), the broth microdilution method was used in 96-well plate format, according to the guidelines of the Clinical and Laboratory Standards Institute and the recommendations of the European Committee on Antimicrobial Susceptibility Testing (EUCAST). The dilutions of the bacterial suspension of the specific bacterial strain, corresponding to the 0.5 McFarland turbidity standard, were prepared with […] Mueller–Hinton broth with TES (Thermo Fisher Scientific) to obtain an end inoculum of 10^5 CFU/mL. The compounds were dissolved in DMSO and mixed with the inoculum. […] The MIC was determined as the lowest concentration of antibiotic that prevented visible bacterial growth. Tetracycline was used as a positive control on each test plate.

MRSA(QA-12.1) = assay: MIC, broth microdilution; assay type: cell-based, S. aureus; settings: Staphylococcus aureus
Method: as §1

MRSA (QA-11.2) = assay: MIC, broth microdilution; assay type: cell-based, S. aureus; settings: Staphylococcus aureus
Method: as §1

E. faecalis RDK 057 = assay: MIC, broth microdilution; assay type: cell-based
Method: as §1

K. pneumoniae = assay: MIC, broth microdilution; assay type: cell-based
Method: as §1

S. aureus (ATCC 29213) = assay: MIC, broth microdilution; assay type: cell-based; settings: Staphylococcus aureus
Method: as §1

E. coli (ATCC 25922) = assay: MIC, broth microdilution; assay type: cell-based
Method: as §1

P. aeruginosa RDK 184 = assay: MIC, broth microdilution; assay type: cell-based
Method: as §1

A. baumannii = assay: MIC, broth microdilution; assay type: cell-based
Method: as §1

E. coli D22 = assay: MIC, broth microdilution; assay type: cell-based; settings: Escherichia coli
Method: as §1

VRE = assay: MIC, broth microdilution; assay type: cell-based; settings: Enterococcus
Method: as §1

E. coli N43 (CGSC# 5583) = assay: MIC, broth microdilution; assay type: cell-based; settings: Escherichia coli
Method: as §1

human topoisomerase IIα = target: T1, human topoisomerase IIα (Homo sapiens, UniProt P11388); assay: human topoisomerase II alpha relaxation high-throughput assay (selectivity); assay type: biochemical; settings: residual activity at 100 µM compound; mean ± SD, two independent experiments; read-out: Human TopoIIα (% RA at 100 µM)
T1 construct: purchased Inspiralis (Norwich, UK)
Method: For selectivity determination, a human topoisomerase II alpha relaxation high-throughput assay was used. The assay kits and black streptavidin-coated 96-well microtiter plates are available from Inspiralis (Norwich, UK). Two independent measurements were performed with an inhibitory concentration of 100 µM. Raw data were calculated as the mean ± SD percentage of the residual enzyme activity.

E. coli topoIV = target: T2, E. coli topoIV (Escherichia coli, UniProt P0AFI2); assay: topoIV relaxation inhibition assay (high-throughput plate assay); assay type: biochemical
T2 construct: purchased Inspiralis (Norwich, UK)
Method: (§2) To determine the IC50 values of the compounds for S. aureus and E. coli, a DNA gyrase supercoiling high-throughput plate assay and a topoIV relaxation high-throughput plate assay were performed. Assay kits and black streptavidin-coated 96-well microtiter plates are available from Inspiralis (Norwich, UK). For pre-screening, an inhibitor concentration of 100 μM was used. […] A nonlinear regression-based fit of the inhibition curves was used, with the log [inhibitor] versus slope of the reaction variables (four parameters) and a symmetric equation. […] To determine IC50 values, two independent repetitions were performed and the average was calculated.

S. aureus topoIV = target: T3, S. aureus topoIV (Staphylococcus aureus, UniProt P0C1U9); assay: biochemical; settings: relaxation inhibition; mean of two independent measurements ± SD
T3 construct: purchased Inspiralis (Norwich, UK)
Method: as §2

S. aureus DNA gyrase = target: T4, S. aureus DNA gyrase (Staphylococcus aureus, UniProt P20831); assay: biochemical; settings: supercoiling inhibition; mean of two independent measurements ± SD
T4 construct: purchased Inspiralis (Norwich, UK)
Method: as §2

E. coli DNA gyrase = target: T5, E. coli DNA gyrase (Escherichia coli, UniProt P0AES4); assay: DNA gyrase supercoiling inhibition assay (high-throughput plate assay); assay type: biochemical
T5 construct: purchased Inspiralis (Norwich, UK)
Method: as §2

[1] = Metabolic activity assessment (cytotoxicity), CellTiter 96 Aqueous One; assay type: cell-based; settings: human, 72 h treatment, means of three independent measurements ± SD
Method: HUVEC (ATCC® CRL-1730™) and HepG2 (ATCC® HB-8065™) cell lines were cultured in Dulbecco’s Modified Eagle Medium (DMEM; Sigma-Aldrich, St. Louis, MO, USA) supplemented with 10% heat-deactivated FBS (Gibco, Grand Island, NE, USA), 2 mM L-glutamine, 100 U/mL penicillin, 100 μg/mL streptomycin (all from Sigma-Aldrich, St. Louis, MO, USA) in a humidified chamber at 37 °C and 5% CO2. The experiments were carried out on passages 4–7 for both cell lines. The tested compounds were dissolved in DMSO and further diluted in culture medium to a desired final concentration. The cells were then seeded into 96-well plates at 5 × 10^4 cells/mL (100 μL/well) or 8 × 10^4 cells/mL (100 μL/well) for HUVEC and HepG2, respectively. The cells were then incubated for 24 h to allow attachment onto the wells. The cells were treated with 1 μM and 50 μM of each compound of interest, or the corresponding vehicle as control. […] Their metabolic activity was assessed after 72 h treatment using a CellTiter 96 Aqueous One Solution Cell Proliferation Assay (Promega, Madison, WI, USA), in accordance with the manufacturer’s instructions. The absorbance was measured at 492 nm on an automated microplate reader, Tecan Spark (Tecan Group Ltd., Männedorf, CH, Switzerland). Data are presented as the percentage of metabolic activity of control cells stimulated with vehicle, or as an IC50 value (mean ± SD) from three independent experiments, each conducted in triplicate (for screening) or duplicate (for IC50 determination). IC50 values were calculated using a non-linear regression model and with Graph Pad Prism 9 software.

E. coli ESBL QA-11.3 = assay: MIC, broth microdilution; assay type: cell-based; settings: Escherichia coli
Method: as §1

[2] = read-out: MIC E. coli N43 (CGSC# 5583)

T2 sequence (P20083 whole entry): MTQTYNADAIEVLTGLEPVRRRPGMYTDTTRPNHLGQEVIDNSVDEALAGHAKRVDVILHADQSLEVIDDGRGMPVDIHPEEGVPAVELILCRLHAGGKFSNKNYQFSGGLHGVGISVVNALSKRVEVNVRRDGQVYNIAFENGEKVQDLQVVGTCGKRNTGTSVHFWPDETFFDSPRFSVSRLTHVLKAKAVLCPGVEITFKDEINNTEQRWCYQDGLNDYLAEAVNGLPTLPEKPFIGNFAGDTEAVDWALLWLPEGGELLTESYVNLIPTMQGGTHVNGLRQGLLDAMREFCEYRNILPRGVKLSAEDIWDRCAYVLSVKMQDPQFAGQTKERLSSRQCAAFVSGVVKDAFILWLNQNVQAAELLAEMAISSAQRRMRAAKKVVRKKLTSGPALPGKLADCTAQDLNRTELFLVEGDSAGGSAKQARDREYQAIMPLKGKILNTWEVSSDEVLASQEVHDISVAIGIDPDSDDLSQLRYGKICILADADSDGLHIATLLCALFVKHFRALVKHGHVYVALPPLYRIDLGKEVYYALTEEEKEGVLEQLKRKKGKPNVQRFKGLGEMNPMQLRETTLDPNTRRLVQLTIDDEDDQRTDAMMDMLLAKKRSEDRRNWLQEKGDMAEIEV
T2 sequence (P0AFI2 whole entry): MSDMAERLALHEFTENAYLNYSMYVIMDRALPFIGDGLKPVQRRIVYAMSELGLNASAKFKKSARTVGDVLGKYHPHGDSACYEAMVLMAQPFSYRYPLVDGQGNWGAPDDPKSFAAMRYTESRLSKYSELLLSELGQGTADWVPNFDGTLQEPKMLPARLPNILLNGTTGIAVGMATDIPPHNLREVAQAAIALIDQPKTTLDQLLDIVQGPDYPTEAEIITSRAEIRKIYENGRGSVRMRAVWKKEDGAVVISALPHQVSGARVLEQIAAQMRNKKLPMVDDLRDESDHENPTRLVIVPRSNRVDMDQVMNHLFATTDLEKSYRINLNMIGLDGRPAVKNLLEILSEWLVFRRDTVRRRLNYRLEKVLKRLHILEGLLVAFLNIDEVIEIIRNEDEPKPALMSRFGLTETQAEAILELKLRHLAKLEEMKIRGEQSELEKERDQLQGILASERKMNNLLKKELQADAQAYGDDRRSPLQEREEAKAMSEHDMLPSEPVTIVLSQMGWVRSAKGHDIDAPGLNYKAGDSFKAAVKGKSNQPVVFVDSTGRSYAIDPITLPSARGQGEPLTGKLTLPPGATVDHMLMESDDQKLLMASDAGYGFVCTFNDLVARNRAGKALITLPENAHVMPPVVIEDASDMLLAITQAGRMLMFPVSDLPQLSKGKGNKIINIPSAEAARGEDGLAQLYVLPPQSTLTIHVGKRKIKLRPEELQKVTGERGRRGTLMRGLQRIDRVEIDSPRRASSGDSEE
T5 sequence (P0AES4 whole entry): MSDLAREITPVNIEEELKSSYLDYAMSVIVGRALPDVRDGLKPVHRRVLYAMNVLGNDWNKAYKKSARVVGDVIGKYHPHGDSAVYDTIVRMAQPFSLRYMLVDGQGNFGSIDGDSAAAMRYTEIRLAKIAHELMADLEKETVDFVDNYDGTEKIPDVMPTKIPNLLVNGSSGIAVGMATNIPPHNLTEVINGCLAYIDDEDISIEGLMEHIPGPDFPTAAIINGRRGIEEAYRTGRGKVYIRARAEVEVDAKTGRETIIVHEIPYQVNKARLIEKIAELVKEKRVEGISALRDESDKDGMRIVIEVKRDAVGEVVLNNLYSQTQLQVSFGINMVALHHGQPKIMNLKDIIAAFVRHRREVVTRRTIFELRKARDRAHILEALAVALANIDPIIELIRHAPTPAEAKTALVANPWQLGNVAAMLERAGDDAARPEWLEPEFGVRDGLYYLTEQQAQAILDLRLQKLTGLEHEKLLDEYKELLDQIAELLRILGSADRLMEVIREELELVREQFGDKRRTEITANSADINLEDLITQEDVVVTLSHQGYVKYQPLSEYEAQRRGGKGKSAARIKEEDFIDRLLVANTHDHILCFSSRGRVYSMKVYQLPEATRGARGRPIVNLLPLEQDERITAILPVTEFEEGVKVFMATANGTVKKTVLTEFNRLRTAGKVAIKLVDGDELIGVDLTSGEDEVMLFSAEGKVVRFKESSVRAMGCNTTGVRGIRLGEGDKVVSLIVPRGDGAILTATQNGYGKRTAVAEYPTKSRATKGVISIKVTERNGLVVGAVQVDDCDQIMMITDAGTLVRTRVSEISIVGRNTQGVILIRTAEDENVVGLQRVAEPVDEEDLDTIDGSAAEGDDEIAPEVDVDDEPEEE
T3 sequence (P0C1U9 whole entry): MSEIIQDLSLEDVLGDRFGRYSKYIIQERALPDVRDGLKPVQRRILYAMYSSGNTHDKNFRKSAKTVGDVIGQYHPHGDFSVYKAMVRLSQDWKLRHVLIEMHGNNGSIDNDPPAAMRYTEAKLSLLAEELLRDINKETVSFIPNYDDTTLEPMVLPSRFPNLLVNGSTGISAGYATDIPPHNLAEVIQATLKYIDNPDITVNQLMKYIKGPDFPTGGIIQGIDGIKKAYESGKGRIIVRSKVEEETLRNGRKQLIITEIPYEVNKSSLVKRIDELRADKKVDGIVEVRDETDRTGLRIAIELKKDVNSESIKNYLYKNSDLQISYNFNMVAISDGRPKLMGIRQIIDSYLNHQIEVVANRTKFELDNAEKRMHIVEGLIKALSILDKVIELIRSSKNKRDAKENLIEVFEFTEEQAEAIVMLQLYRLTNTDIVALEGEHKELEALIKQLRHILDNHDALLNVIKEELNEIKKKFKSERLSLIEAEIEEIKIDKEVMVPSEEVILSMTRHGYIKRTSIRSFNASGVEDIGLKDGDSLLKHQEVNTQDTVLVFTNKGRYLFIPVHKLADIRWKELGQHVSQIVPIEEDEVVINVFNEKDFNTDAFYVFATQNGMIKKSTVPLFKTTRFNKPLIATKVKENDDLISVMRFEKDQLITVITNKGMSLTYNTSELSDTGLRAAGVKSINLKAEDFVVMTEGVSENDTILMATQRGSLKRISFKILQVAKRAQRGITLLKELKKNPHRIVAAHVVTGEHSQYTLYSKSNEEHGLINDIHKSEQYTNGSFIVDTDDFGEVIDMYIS
T3 sequence (P0C1S7 whole entry partner): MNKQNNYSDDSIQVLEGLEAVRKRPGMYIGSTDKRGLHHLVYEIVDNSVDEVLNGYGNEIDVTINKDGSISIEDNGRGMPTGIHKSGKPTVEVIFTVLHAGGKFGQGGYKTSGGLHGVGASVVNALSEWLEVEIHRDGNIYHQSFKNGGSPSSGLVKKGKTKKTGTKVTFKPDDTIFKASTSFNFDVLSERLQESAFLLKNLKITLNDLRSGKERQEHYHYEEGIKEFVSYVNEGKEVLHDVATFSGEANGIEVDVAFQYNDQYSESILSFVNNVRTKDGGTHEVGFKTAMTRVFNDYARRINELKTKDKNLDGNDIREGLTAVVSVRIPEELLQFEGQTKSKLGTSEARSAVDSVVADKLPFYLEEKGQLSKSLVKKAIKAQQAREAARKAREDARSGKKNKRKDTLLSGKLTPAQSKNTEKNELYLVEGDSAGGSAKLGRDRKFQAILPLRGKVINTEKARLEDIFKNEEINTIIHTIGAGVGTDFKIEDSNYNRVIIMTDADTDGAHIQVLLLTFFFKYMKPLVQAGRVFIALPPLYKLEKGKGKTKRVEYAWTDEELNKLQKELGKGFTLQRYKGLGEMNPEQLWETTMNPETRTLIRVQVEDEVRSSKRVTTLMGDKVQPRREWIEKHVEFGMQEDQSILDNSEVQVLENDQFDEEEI

For `O=c1ccc2ncc(=O)n3c2n1C[C@H]3CN1CCC(NCc2cc3c(cn2)OCCC3)CC1` [Gepo, gepotidacin, reference compound], which MIC (MRSA (QA-11.7); Table S3, read-out: MIC (μM) MRSA (QA-11.7)) is on record?
Its MIC is 0.161 µM.

What about the MIC (MRSA (QA-11.7); strain resistant to cefoxitin, ciprofloxacin, clindamycin, erythromycin, tetracycline, thiamulin, trimethoprim, read-out: MIC MRSA (QA-11.7)) of the same compound?
The MIC was 0.063 µg/mL.

What about the MIC (MRSA(QA-12.1); Table S3, read-out: MIC (μM) MRSA(QA-12.1)) of the same compound?
The MIC was 0.32 µM.

What about the MIC (MRSA(QA-12.1); strain resistant to cefoxitin, gentamicin, kanamycin, rifampicin, streptomycin, sulfamethoxazole, tetracycline, read-out: MIC MRSA(QA-12.1)) of the same compound?
The MIC was 0.125 µg/mL.

And the MIC (MRSA (QA-11.2); Table S3, read-out: MIC (μM) MRSA (QA-11.2))?
The MIC was 1.28 µM.

What about the MIC (MRSA (QA-11.2); read-out: MIC MRSA (QA-11.2)) of the same compound?
The MIC was 0.5 µg/mL.

What about the MIC (E. faecalis RDK 057; Enterococcus faecalis, RDK057; Table S3; read-out: MIC (μM) E. faecalis DRK 057) of the same compound?
The MIC was 5.12 µM.

And the MIC (E. faecalis RDK 057; Enterococcus faecalis, RDK057; read-out: MIC E. faecalis RDK 057)?
Its MIC is 2 µg/mL.

And the MIC (K. pneumoniae; Klebsiella pneumoniae; Table S3; read-out: MIC (μM) K. pneumoniae)?
Its MIC is 20.5 µM.

And the MIC (K. pneumoniae; Klebsiella pneumoniae; read-out: MIC K. pneumoniae)?
Its MIC is 8 µg/mL.

What about the MIC (S. aureus (ATCC 29213); ATCC29213, Table S3, read-out: MIC (μM) S. aureus (ATCC 29213)) of the same compound?
Its MIC is 0.32 µM.

What about the MIC (E. coli (ATCC 25922); Escherichia coli, ATCC25922; Table S3; read-out: MIC (μM) E. coli (ATCC 25922)) of the same compound?
The MIC was 2.56 µM.

What about the MIC (E. coli (ATCC 25922); Escherichia coli, ATCC25922; read-out: MIC E. coli (ATCC 25922)) of the same compound?
The MIC was 1 µg/mL.

And the MIC (P. aeruginosa RDK 184; Pseudomonas aeruginosa, RDK184; Table S3; read-out: MIC (μM) P. aeruginosa RDK 184)?
The MIC was 20.5 µM.

And the MIC (P. aeruginosa RDK 184; Pseudomonas aeruginosa, RDK184; read-out: MIC P. aeruginosa RDK 184)?
The MIC was 8 µg/mL.

And the MIC (A. baumannii; Acinetobacter baumannii; Table S3; read-out: MIC (μM) A. baumannii)?
The MIC was 20.5 µM.

What about the MIC (A. baumannii; Acinetobacter baumannii; read-out: MIC A. baumannii) of the same compound?
The MIC was 8 µg/mL.

And the MIC (E. coli D22; D22, Table S3, lpxC mutation, read-out: MIC (μM) E. coli D22)?
The MIC was 0.32 µM.

What about the MIC (VRE; Table S3, read-out: MIC (μM) VRE) of the same compound?
The MIC was 2.56 µM.

What about the MIC (VRE; read-out: MIC VRE) of the same compound?
Its MIC is 1 µg/mL.

What about the MIC (E. coli N43 (CGSC# 5583); read-out: MIC (μM) E. coli N43) of the same compound?
The MIC was 0.041 µM.

What about the MIC (E. coli N43 (CGSC# 5583); [2]) of the same compound?
The MIC was 0.016 µg/mL.

For `COc1ccc2nccc(OCC3CCC(NCc4ccc(N)cc4)CC3)c2n1` (centres unmarked) [Compound 10, 4-(((4-(((6-methoxy-1,5-naphthyridin-4-yl)oxy)methyl)cyclohexyl)amino)methyl)aniline], which remaining activity at 100 µM (human topoisomerase IIα) is on record?
The remaining activity at 100 µM was 99 ± 1%.

And the IC50 (E. coli topoIV)?
Its IC50 is greater than 100 µM.

And the IC50 (S. aureus topoIV)?
The IC50 was greater than 100 µM.

And the IC50 (S. aureus DNA gyrase)?
The IC50 was greater than 100 µM.

And the IC50 (E. coli DNA gyrase)?
Its IC50 is greater than 100 µM.

And the IC50 at 72 h ([1]; HUVEC cells (ATCC CRL-1730))?
The IC50 at 72 h was greater than 50 µM.

What about the IC50 at 72 h ([1]; HepG2 cells (ATCC HB-8065)) of the same compound?
The IC50 at 72 h was greater than 50 µM.

What about the MIC (E. faecalis RDK 057; Enterococcus faecalis, RDK057, read-out: MIC (μM) E. faecalis DRK 057) of the same compound?
Its MIC is greater than 328 µM.

And the MIC (E. faecalis RDK 057; Enterococcus faecalis, RDK057, read-out: MIC E. faecalis RDK 057)?
Its MIC is greater than 128 µg/mL.

What about the MIC (K. pneumoniae; Klebsiella pneumoniae, 20 h, read-out: MIC (μM) K. pneumoniae) of the same compound?
Its MIC is greater than 328 µM.

And the MIC (K. pneumoniae; Klebsiella pneumoniae, read-out: MIC K. pneumoniae)?
The MIC was greater than 128 µg/mL.

And the MIC (S. aureus (ATCC 29213); ATCC29213, 20 h, read-out: MIC (μM) S. aureus (ATCC 29213))?
The MIC was greater than 328 µM.

And the MIC (S. aureus (ATCC 29213); ATCC29213, read-out: MIC S. aureus (ATCC 29213))?
Its MIC is greater than 128 µg/mL.

What about the MIC (E. coli ESBL QA-11.3; ESBLQA11.3, 20 h, read-out: MIC (μM) E. coli ESBL QA:11.3) of the same compound?
The MIC was greater than 328 µM.

What about the MIC (E. coli ESBL QA-11.3; ESBLQA11.3, read-out: MIC E. coli ESBL QA-11.3) of the same compound?
Its MIC is greater than 128 µg/mL.

And the MIC (E. coli (ATCC 25922); Escherichia coli, ATCC25922, 20 h, read-out: MIC (μM) E. coli (ATCC 25922))?
The MIC was greater than 328 µM.

What about the MIC (E. coli (ATCC 25922); Escherichia coli, ATCC25922, read-out: MIC E. coli (ATCC 25922)) of the same compound?
The MIC was greater than 128 µg/mL.

And the MIC (P. aeruginosa RDK 184; Pseudomonas aeruginosa, RDK184, 20 h, read-out: MIC (μM) P. aeruginosa RDK 184)?
The MIC was greater than 328 µM.

And the MIC (P. aeruginosa RDK 184; Pseudomonas aeruginosa, RDK184, read-out: MIC P. aeruginosa RDK 184)?
The MIC was greater than 128 µg/mL.

And the MIC (A. baumannii; Acinetobacter baumannii, 20 h, read-out: MIC (μM) A. baumannii)?
The MIC was greater than 328 µM.

What about the MIC (A. baumannii; Acinetobacter baumannii, read-out: MIC A. baumannii) of the same compound?
Its MIC is greater than 128 µg/mL.

And the MIC (E. coli D22; D22, 20 h, read-out: MIC (μM) E. coli D22)?
Its MIC is greater than 328 µM.

What about the MIC (E. coli D22; D22, read-out: MIC E. coli D22) of the same compound?
The MIC was greater than 128 µg/mL.

What about the MIC (E. coli N43 (CGSC# 5583); 20 h, read-out: MIC (μM) E. coli N43) of the same compound?
The MIC was greater than 328 µM.

And the MIC (E. coli N43 (CGSC# 5583); [2])?
The MIC was greater than 128 µg/mL.
